According to PubChem BioAssay AID328 (DTP/NCI, 2004):
Several values for one entry are separate records, joined by “and”; a condition that tells them apart may be missing. Equal values may be shown once. Inconclusive results and toxic doses are left out.

Test system: BDF1 mice, P388 leukemia ip, median survival T/C
Test: NCI In Vivo Anticancer Drug Screen. Data for tumor model P388 Leukemia (intraperitoneal) in B6D2F1 (BDF1) mice
Settings: endpoint: median survival time, higher = longer survival
Method in brief: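 Antitumour effect was judged in vivo: survival in drug-treated mice, normalised to that of vehicle-dosed controls, gives the reported T/C.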

[1] = dose: 100.0 mg/kg/injection, schedule: Q04DX003 (ip), vehicle: saline with Tween-80
[2] = dose: 200.0 mg/kg/injection, schedule: Q04DX003 (ip), vehicle: saline with Tween-80
[3] = dose: 400.0 mg/kg/injection, schedule: Q04DX003 (ip), vehicle: saline with Tween-80
[4] = dose: 50.0 mg/kg/injection, schedule: Q01DX009 (ip), vehicle: saline with Tween-80
[5] = dose: 100.0 mg/kg/injection, schedule: Q01DX009 (ip), vehicle: saline with Tween-80
[6] = dose: 200.0 mg/kg/injection, schedule: Q01DX009 (ip), vehicle: saline with Tween-80
[7] = dose: 25.0 mg/kg/injection, schedule: Q01DX009 (ip), vehicle: saline with Tween-80
[8] = dose: 100.0 mg/kg/injection, schedule: Q01DX009 (ip), vehicle: saline
[9] = dose: 100.0 mg/kg/injection, schedule: Q04DX003 (ip), vehicle: saline
[10] = dose: 200.0 mg/kg/injection, schedule: Q01DX009 (ip), vehicle: saline
[11] = dose: 200.0 mg/kg/injection, schedule: Q04DX003 (ip), vehicle: saline
[12] = dose: 50.0 mg/kg/injection, schedule: Q01DX005 (ip), vehicle: saline
[13] = dose: 100.0 mg/kg/injection, schedule: Q01DX005 (ip), vehicle: saline

## CCC(C)C(=O)O[C@H]1C(=O)O[C@@H]2C[C@H]3C(C)=CC(=O)[C@@H](O)[C@]3(C)[C@H]3[C@@H](O)[C@H](O)[C@@]4(C)OC[C@]32[C@@H]14 (some centres undefined)
dose: 0.06 mg/kg/injection, schedule: Q01DX009 (ip), vehicle: saline + alcohol
  T/C: 115 % of control
dose: 0.75 mg/kg/injection, schedule: Q01DX009 (ip), vehicle: saline + alcohol
  T/C: 159 % of control
dose: 1.0 mg/kg/injection, schedule: Q01DX009 (ip), vehicle: saline + alcohol
  T/C: 198 % of control
dose: 1.5 mg/kg/injection, schedule: Q01DX009 (ip), vehicle: saline + alcohol
  T/C: 154 % of control
dose: 2.0 mg/kg/injection, schedule: Q01DX009 (ip), vehicle: saline + alcohol
  T/C: 155 % of control
dose: 3.0 mg/kg/injection, schedule: Q01DX009 (ip), vehicle: saline + alcohol
  T/C: 104 % of control
dose: 4.0 mg/kg/injection, schedule: Q01DX009 (ip), vehicle: saline + alcohol
  T/C: 180 % of control

## CCOC(=O)C1=C(Nc2ccccc2)CSC1
dose: 25.0 mg/kg/injection, schedule: Q01DX009 (ip), vehicle: water
  T/C: 94 % of control
dose: 50.0 mg/kg/injection, schedule: Q01DX009 (ip), vehicle: water
  T/C: 97 % of control
dose: 100.0 mg/kg/injection, schedule: Q01DX009 (ip), vehicle: water
  T/C: 102 % of control
dose: 200.0 mg/kg/injection, schedule: Q01DX009 (ip), vehicle: water
  T/C: 108 % of control
dose: 400.0 mg/kg/injection, schedule: Q01DX009 (ip), vehicle: water
  T/C: 91 % of control

## CCCCC(=O)c1cc(OC)cc(OC)c1
dose: 200.0 mg/kg/injection, schedule: Q01DX009 (ip), vehicle: Klucel (hydroxypropylcellulose) (HPC)
  T/C: 100 % of control
dose: 400.0 mg/kg/injection, schedule: Q01DX009 (ip), vehicle: Klucel (hydroxypropylcellulose) (HPC)
  T/C: 91 % of control

## Cc1ccc(-c2nn3c(-c4ccccc4)nnc3o2)cc1
[1]
  T/C: 110 % of control
[2]
  T/C: 115 % of control
[3]
  T/C: 105 % of control

## CN(C)c1ccc(/C=N/Nc2ccc(C(C#N)=C(C#N)C#N)cc2)cc1
[4]
  T/C: 101 % of control
[5]
  T/C: 89 % of control
[6]
  T/C: 86 % of control

## CCNc1nc2ncnc(NCC)c2[nH]1
dose: 3.13 mg/kg/injection, schedule: Q01DX009 (ip), vehicle: saline with Tween-80
  T/C: 94 % of control
dose: 6.25 mg/kg/injection, schedule: Q01DX009 (ip), vehicle: saline with Tween-80
  T/C: 103 % of control
dose: 12.5 mg/kg/injection, schedule: Q01DX009 (ip), vehicle: saline with Tween-80
  T/C: 100 % of control
[7]
  T/C: 101 % of control

## Cc1cnc2nc(N)[nH]c(=O)c2c1
dose: 37.5 mg/kg/injection, schedule: Q04DX003 (ip), vehicle: saline sonified
  T/C: 100 % of control
dose: 75.0 mg/kg/injection, schedule: Q04DX003 (ip), vehicle: saline sonified
  T/C: 110 % of control
dose: 150.0 mg/kg/injection, schedule: Q04DX003 (ip), vehicle: saline sonified
  T/C: 100 % of control

## Nc1ccc(N2N=C(N3CCCC3)CC2=O)cc1
dose: 50.0 mg/kg/injection, schedule: Q01DX005 (ip), vehicle: saline with Tween-80
  T/C: 89 % of control
dose: 100.0 mg/kg/injection, schedule: Q01DX005 (ip), vehicle: saline with Tween-80
  T/C: 89 % of control
dose: 200.0 mg/kg/injection, schedule: Q01DX005 (ip), vehicle: saline with Tween-80
  T/C: 103 % of control

## O=C(Cn1cc(F)c(=O)[nH]c1=O)c1ccco1
[8]
  T/C: 100 % of control
[9]
  T/C: 111 % of control
[10]
  T/C: 95 % of control
[11]
  T/C: 105 % of control and 122 % of control
dose: 400.0 mg/kg/injection, schedule: Q01DX009 (ip), vehicle: saline
  T/C: 100 % of control
dose: 400.0 mg/kg/injection, schedule: Q04DX003 (ip), vehicle: saline
  T/C: 86 % of control
dose: 600.0 mg/kg/injection, schedule: Q04DX003 (ip), vehicle: saline
  T/C: 95 % of control

## Cn1cnc([N+](=O)[O-])c1Cl
[7]
  T/C: 101 % of control
[12]
  T/C: 95 % of control
[4]
  T/C: 92 % of control
[13]
  T/C: 104 % of control
[5]
  T/C: 106 % of control
[9]
  T/C: 100 % of control
[6]
  T/C: 101 % of control
[11]
  T/C: 105 % of control

## COc1c2c(c(OC)c3ccccc13)C(=O)c1ccccc1C2=O
dose: 25.0 mg/kg/injection, schedule: Q01DX005 (ip), vehicle: saline
  T/C: 115 % of control
[12]
  T/C: 87 % of control
[13]
  T/C: 95 % of control
dose: 200.0 mg/kg/injection, schedule: Q01DX005 (ip), vehicle: saline
  T/C: 93 % of control

## CC(=O)O[C@]1(C(C)=O)CC[C@H]2[C@@H]3C[C@H](F)C4=CC(=O)CC[C@]4(C)[C@H]3CC[C@@]21C
dose: 12.5 mg/kg/injection, schedule: Q01DX009 (ip), vehicle: Klucel (hydroxypropylcellulose) (HPC)
  T/C: 109 % of control
dose: 25.0 mg/kg/injection, schedule: Q01DX009 (ip), vehicle: Klucel (hydroxypropylcellulose) (HPC)
  T/C: 100 % of control
dose: 50.0 mg/kg/injection, schedule: Q01DX009 (ip), vehicle: Klucel (hydroxypropylcellulose) (HPC)
  T/C: 100 % of control
dose: 100.0 mg/kg/injection, schedule: Q01DX009 (ip), vehicle: Klucel (hydroxypropylcellulose) (HPC)
  T/C: 87 % of control
dose: 100.0 mg/kg/injection, schedule: Q04DX003 (ip), vehicle: alcohol
  T/C: 100 % of control
dose: 200.0 mg/kg/injection, schedule: Q04DX003 (ip), vehicle: alcohol
  T/C: 105 % of control
dose: 400.0 mg/kg/injection, schedule: Q04DX003 (ip), vehicle: alcohol
  T/C: 110 % of control

## O=C(Nc1ccc(F)cc1)C(F)(F)F
[4]
  T/C: 106 % of control
[5]
  T/C: 98 % of control
[6]
  T/C: 105 % of control

## CC(=O)n1ccnc1/C=C\c1ccc([N+](=O)[O-])s1
dose: 50.0 mg/kg/injection, schedule: Q04DX003 (ip), vehicle: Klucel (hydroxypropylcellulose) (HPC)
  T/C: 95 % of control
dose: 100.0 mg/kg/injection, schedule: Q04DX003 (ip), vehicle: Klucel (hydroxypropylcellulose) (HPC)
  T/C: 110 % of control
dose: 200.0 mg/kg/injection, schedule: Q04DX003 (ip), vehicle: Klucel (hydroxypropylcellulose) (HPC)
  T/C: 105 % of control

## O=C(O)c1cc2c3c(c1)CCCN3CCC2
[1]
  T/C: 90 % of control
[2]
  T/C: 100 % of control
[3]
  T/C: 90 % of control

## CO[C@@H]1[C@@H](OC2OC(C)C(OC3CC(C)(O)C(OC(=O)CC(C)C)C(C)O3)C(N(C)C)C2O)[C@@H](CC=O)C[C@@H](C)C(=O)/C=C/C2O[C@H]2C[C@@H](C)OC(=O)C[C@H]1OC(C)=O (some centres undefined)
dose: 50.0 mg/kg/injection, schedule: Q#A X020 (ip), vehicle: water
  T/C: 109 % of control
dose: 100.0 mg/kg/injection, schedule: Q01DX001 (ip), vehicle: water
  T/C: 110 % of control
dose: 100.0 mg/kg/injection, schedule: Q01DX010 (ip), vehicle: water
  T/C: 118 % of control
dose: 100.0 mg/kg/injection, schedule: Q#A X020 (ip), vehicle: water
  T/C: 118 % of control
dose: 150.0 mg/kg/injection, schedule: Q#A X020 (ip), vehicle: water
  T/C: 118 % of control
dose: 200.0 mg/kg/injection, schedule: Q01DX001 (ip), vehicle: water
  T/C: 100 % of control
dose: 200.0 mg/kg/injection, schedule: Q01DX010 (ip), vehicle: water
  T/C: 109 % of control
dose: 200.0 mg/kg/injection, schedule: Q#A X020 (ip), vehicle: water
  T/C: 118 % of control
dose: 300.0 mg/kg/injection, schedule: Q01DX010 (ip), vehicle: water
  T/C: 118 % of control
dose: 400.0 mg/kg/injection, schedule: Q01DX001 (ip), vehicle: water
  T/C: 90 % of control
dose: 600.0 mg/kg/injection, schedule: Q01DX001 (ip), vehicle: water
  T/C: 100 % of control
dose: 1000.0 mg/kg/injection, schedule: Q01DX010 (oral), vehicle: water
  T/C: 86 % of control
dose: 1500.0 mg/kg/injection, schedule: Q01DX010 (oral), vehicle: water
  T/C: 100 % of control

## O=C(c1ccccc1)N1CCC2OC2C1 (centres undefined)
dose: 50.0 mg/kg/injection, schedule: Q01DX009 (ip), vehicle: saline
  T/C: 94 % of control
[8]
  T/C: 109 % of control
[10]
  T/C: 100 % of control

## CCOC(=S)SCC(=O)Nc1ccc(Cl)cc1
dose: 75.0 mg/kg/injection, schedule: Q01DX009 (ip), vehicle: saline with Tween-80
  T/C: 110 % of control
dose: 150.0 mg/kg/injection, schedule: Q01DX009 (ip), vehicle: saline with Tween-80
  T/C: 89 % of control
dose: 300.0 mg/kg/injection, schedule: Q01DX009 (ip), vehicle: saline with Tween-80
  T/C: 89 % of control
